Results published in patent EP4775582A1, “MACROCYCLIC COMPOUND AND ANTIBODY-DRUG CONJUGATE THEREOF” (Genfleet Therapeutics (Shanghai) Inc., priority 2023, dated 2025).
Read-outs that look alike come from different tables or passages of the source.

Key:
Type in all cases: cell-based, human
[1] = test system: AsPC-1 cells; assay: 3D cell proliferation assay (CellTiter Glo-3D), AsPC-1
Experimental: (§1) The cells were digested with trypsin (containing EDTA), collected in their respective low-serum complete media containing 2% FBS (for MIA Paca-2 cell culture: DMEM + 2% FBS + 0.5% Horse serum + 1% PS), and counted. After the cell density was adjusted as required, 200 MIA PaCa-2 cells, 800 AsPC-1 cells, 800 NCI-H441 cells, or 400 NCI-H1975 cells per well were seeded into a 384-well cell culture plate, with the volume of the medium in each well being 45 µL. The cell culture plate was incubated in an incubator at 37 °C with 5% CO2 overnight. […] On the day after cell seeding, 5 µL of the 10× compound stock solution was added to each cell culture well. […] In addition to the compound-treated wells described above, cell-containing DMSO control wells (with 5 µL of the complete medium containing 1% DMSO added to each well) and cell-free medium control wells (containing 50 µL of the complete medium with 2% FBS) were also set. The culture plate was incubated in an incubator at 37 °C with 5% CO2 for another 5 days, and then 30 µL of CellTiter-Glo working solution was added to each well. The mixture was well mixed, incubated for 30 min, left to stand at room temperature for 30 min, and then transferred to a white-bottomed, opaque 384-well assay plate at 40 µL/well. […] Using an XLfit software, the IR (%) values were plotted against the logarithm of the compound concentrations, and the dose-response curves were fitted using the four-parameter method to calculate the IC50 values.

[2] = test system: H441 p-ERK; assay: Cell p-ERK assay (HTRF), NCI-H441 cells; conditions: NCI-H441 cells (KRAS G12V), 3 h incubation
Experimental: (§2) The cells were digested with trypsin (containing EDTA), collected in their corresponding complete media, and counted. The density of the cell suspensions was adjusted with their corresponding complete media, and 10000 AsPC-1 cells or 20000 NCI-H441 cells per well were seeded into a 96-well cell culture plate, with the volume of the medium in each well being 80 µL. The cell culture plate was incubated in an incubator at 37 °C with 5% CO2 overnight. […] On the day after cell seeding, 20 µL of the 5× compound stock solution was added to each cell culture well. […] In addition to the compound-treated wells described above, cell-containing DMSO control wells were also set. A complete medium containing 0.5% DMSO was added at 20 µL/well. After the mixture was well mixed, the culture plate was incubated in the incubator at 37 °C with 5% CO2 for another 3 h. The medium was then removed from the culture wells, and 50 µL of cell lysis buffer (from Advance ERK phospho-T202/Y204 kit) was added to each well. The mixture was well mixed and incubated for 30 min. Then, 16 µL of the mixture was transferred to a white-bottomed, opaque 96-well assay plate, and separately, 16 µL of cell lysis buffer was added to additional wells (serving as blank wells) in the assay plate. After the transfer was completed, 4 µL of p-ERK HTRF antibody mixture (from Advance ERK phospho-T202/Y204 kit) was added to each well of the assay plate, followed by a 4-hour incubation. […] Using an XLfit software, the IR (%) values were plotted against the logarithm of the compound concentrations, and the dose-response curves were fitted using the four-parameter method to calculate the IC50 values.

[3] = test system: AsPC-1 p-ERK; assay: Cell p-ERK assay (HTRF), AsPC-1 cells
Experimental: as §2

[4] = test system: NCI-H441 cells; assay: 3D cell proliferation assay (CellTiter Glo-3D), NCI-H441; conditions: NCI-H441 cells (KRAS G12V), 2% FBS, 5 days, read-out: H441 AP IC50
Experimental: as §1

[5] = Homo sapiens, ASPC1, 120 h, read-out: AsPC-1 AP IC50(nM)
[6] = Homo sapiens, ASPC1, 3 h, read-out: AsPC-1 p-ERK IC50(nM)

`CCn1c(-c2cc(C#CCN3CCS(=O)(=O)CC3)cnc2[C@H](C)OC)c2c3cc(ccc31)-c1csc(n1)C[C@H](NC(=O)[C@@H](NC)C1CCCC1)C(=O)N1CCC[C@H](N1)C(=O)OCC(C)(C)C2` (atropisomer, axis not shown; (Ra)) [Compound Z15, (2S)-2-methylamino-2-cyclopentyl-N-((6^3S,4S,Z)-(Ra)-1^2-(5-(3-(1,1-dioxidothiomorpholino)prop-1-yn-1-yl)-2-((S)-1-methoxyethyl)pyridin-3-yl)-1^1-ethyl-10,10-dimethyl-5,7-dioxo-6^1,6^2,6^3,6^4,6^5,6^6-hexahydro-1^1H-8-oxa-2(4,2)-thiazola-1(5,3)-indola-6(1,3)-pyridazinacycloundecaphane-4-yl)acetamide] gave an IC50 [1, 5] of 0.31 nM, an IC50 ([2]; Homo sapiens) of 0.24 nM and an IC50 [3, 6] of 0.42 nM. It also gave an IC50 ([4]; Homo sapiens, 120 h) of 0.35 nM.

`CCn1c(-c2cc(C#CCN3CCC(C#N)(CO)CC3)cnc2[C@H](C)OC)c2c3cc(ccc31)-c1csc(n1)C[C@H](NC(=O)[C@H]1[C@@H]3COC[C@@H]31)C(=O)N1CCC[C@H](N1)C(=O)OCC(C)(C)C2` (atropisomer, axis not shown; (Ra)) [Compound Z30, (1R,5S,6r)-N-((6^3S,4S,Z)-(Ra)-1^2-(5-(3-(4-cyano-4-(hydroxymethyl)piperidin-1-yl)prop-1-yn-1-yl)-2-((S)-1-methoxyethyl)pyridin-3-yl)-11-ethyl-10,10-dimethyl-5,7-dioxo-6^1,6^2,6^3,6^4,6^5,6^6-hexahydro-1^1H-8-oxa-2(4,2)-thiazola-1(5,3)-indola-6(1,3)-pyridazinacycloundecaphane-4-yl)-3-oxabicyclo[3.1.0]hexane-6-carboxamide] was tested, and the IC50 [1, 5] was 0.07 nM, the IC50 ([2]; Homo sapiens) was 0.15 nM and the IC50 [3, 6] was 0.07 nM. For the same molecule, the IC50 ([4]; Homo sapiens, 120 h) was 0.11 nM.

For `CO[C@@H](C)c1ncc(C#CCN2CCS(=O)(=O)CC2)cc1-c1c2c3cc(ccc3n1CC(C)O)-c1csc(n1)C[C@H](NC(=O)[C@H]1[C@H](C)[C@@H]1C)C(=O)N1CCC[C@H](N1)C(=O)OCC(C)(C)C2` (atropisomer, axis not shown; (Ra)) [Compound Z3, (1r,2R,3S)-N-((6^3S,4S,Z)-(Ra)-1^2-(5-(3-(1,1-dioxidothiomorpholino)prop-1-yn-1-yl)-2-((S)-1-methoxyethyl)pyridin-3-yl)-1^1-(2-hydroxypropyl)-10,10-dimethyl-5,7-dioxo-6,6',6',6^46^5,6^6-hexahydro-1^1H-8-oxa-2(4,2)-thiazola-1(5,3)-indola-6(1,3)-pyridazinacycloundecaphane-4-yl)-2,3-dimethylcyclopropane-1-carboxamide], the IC50 ([1]; AsPC-1 cells (KRAS G12D), 3D, 2% FBS, 5 days, read-out: AsPC-1 AP IC50) was 0.18 nM, the IC50 [2] was 0.72 nM and the IC50 ([3]; AsPC-1 cells (KRAS G12D), 3 h incubation, read-out: AsPC-1 p-ERK IC50) was 0.59 nM. It also gave an IC50 [4] of 0.28 nM.

`CCn1c(-c2cc(C#CCN3CCC(C(=O)NCCO)CC3)cnc2[C@H](C)OC)c2c3cc(ccc31)-c1csc(n1)C[C@H](NC(=O)[C@H]1[C@H](C)[C@@H]1C)C(=O)N1CCC[C@H](N1)C(=O)OCC(C)(C)C2` (atropisomer, axis not shown; (Ra)) [Compound Z12] was tested, and the IC50 ([1]; Homo sapiens, ASPC1, 120 h, AsPC-1 cells (KRAS G12D), 3D, 2% FBS, 5 days, read-out: AsPC-1 AP IC50) was 0.44 nM, the IC50 ([2]; Homo sapiens) was 0.15 nM and the IC50 ([3]; Homo sapiens, ASPC1, AsPC-1 cells (KRAS G12D), 3 h incubation, read-out: AsPC-1 p-ERK IC50) was 0.36 nM. The IC50 ([4]; Homo sapiens, 120 h) was 0.21 nM.

With `CCn1c(-c2cc(C#CCN3CCC(N)(C#N)CC3)cnc2[C@H](C)OC)c2c3cc(ccc31)-c1csc(n1)C[C@H](NC(=O)[C@H]1[C@@H]3COC[C@@H]31)C(=O)N1CCC[C@H](N1)C(=O)OCC(C)(C)C2` (atropisomer, axis not shown; (Ra)) [Compound Z51, (1R,5S,6r)-N-((6^3S,4S,Z)-(Ra)-1^2-(5-(3-(4-amino-4-cyanopiperidin-1-yl)prop-1-yn-1-yl)-2-((S)-1-methoxyethyl)-pyridin-3-yl)-1^1-ethyl-10,10-dimethyl-5,7-dioxo-6^1,6^2,6^3,6^4,6^5,6^6-hexahydro-11H-8-oxa-2(4,2)-thiazola-1(5,3)-indola-6(1,3)-pyridazinacycloundecaphane-4-yl)-3-oxabicyclo[3.1.0]hexane-6-carboxamide] the IC50 [1, 5] was 0.42 nM, the IC50 ([2]; Homo sapiens) was 0.18 nM and the IC50 [3, 6] was 0.27 nM. It also gave an IC50 ([4]; Homo sapiens, 120 h) of 0.28 nM.

For `CCn1c(-c2cc(C#CCN3CCCOCC3)cnc2[C@H](C)OC)c2c3cc(ccc31)-c1csc(n1)C[C@H](NC1=NOC(CC)(CC)C1)C(=O)N1CCC[C@H](N1)C(=O)OCC(C)(C)C2` (atropisomer, axis not shown; (Ra)) [Compound Z279, (6^3S,4S,Z)-(Ra)-1^2-(5-(3-(1,4-oxazepan-4-yl)prop-1-yn-1-yl)-2-((S)-1-methoxyethyl)pyridin-3-yl)-1^1-ethyl-10,10-dimethyl-4-((5,5-diethyl-4,5-dihydroisoxazol-3-yl)amino)-6^1,6^2,6^3,6^4,6^5,6^6-hexahydro-1^1H-8-oxa-2(4,2)-thiazola-1(5,3)-indola-6(1,3)-pyridazinacycloundecaphane-5,7-dione], the IC50 [1, 5] was 6.05 nM, the IC50 ([2]; Homo sapiens) was 1.03 nM and the IC50 [3, 6] was 1.83 nM. The IC50 ([4]; Homo sapiens, 120 h) was 3.26 nM.

`CCn1c(-c2cc(C#CCN3CCN(C(=O)CN)CC3)cnc2[C@H](C)OC)c2c3cc(ccc31)-c1csc(n1)[C@@H](OCCN(C)C)[C@H](NC(=O)[C@H]1[C@H](C)[C@@H]1C)C(=O)N1CCC[C@H](N1)C(=O)OCC(C)(C)C2` (atropisomer, axis not shown; (Ra)) [Compound Z165] was tested, and the IC50 [1, 5] was 10 nM, the IC50 ([2]; Homo sapiens) was 13.7 nM and the IC50 [3, 6] was 10.3 nM. The IC50 ([4]; Homo sapiens, 120 h) was 24.4 nM.

Work on `CCn1c(-c2cc(C#CCN3CCS(=O)(=O)CC3)cnc2[C@H](C)OC)c2c3cc(ccc31)-c1csc(n1)C[C@H](NC(=O)[C@@H]1[C@@H](C)[C@H]1CO)C(=O)N1CCC[C@H](N1)C(=O)OCC(C)(C)C2` (atropisomer, axis not shown; (Ra)) [Compound Z7-1, (1R,2R,3S)-N-((6^3S,4S,Z)-(Ra)-1^2-(5-(3-(1,1-dioxidothiomorpholino)prop-1-yn-1-yl)-2-((S)-1-methoxyethyl)pyridin-3-yl)-1^1-ethyl-10,10-dimethyl-5,7-dioxo-6^1,6^2,6^3,6^4,6^5,6^6-hexahydro-1^1H-8-oxa-2(4,2)-thiazola-1(5,3)-indola-6(1,3)-pyridazinacycloundecaphane-4-yl)-2-(hydroxymethyl)-3-methylcyclopropane-1-carboxamide] yielded an IC50 [1, 5] of 0.52 nM, an IC50 ([2]; Homo sapiens) of 0.5 nM and an IC50 [3, 6] of 0.51 nM. The IC50 ([4]; Homo sapiens, 120 h) was 0.32 nM.

`CCn1c(-c2cc(C#CCN3CCCOCC3)cnc2[C@H](C)OC)c2c3cc(ccc31)-c1csc(n1)C[C@H](NC1=NOC(C)(C3CC3)C1)C(=O)N1CCC[C@H](N1)C(=O)OCC(C)(C)C2` (atropisomer, axis not shown; (Ra)) [Compound Z281, (6^3S,4S,Z)-(Ra)-1^2-(5-(3-(1,4-oxazepan-4-yl)prop-1-yn-1-yl)-2-((S)-1-methoxyethyl)pyridin-3-yl)-1^1-ethyl-10,10-dimethyl-4-((5-cyclopropyl-5-methyl-4,5-dihydroisoxazol-3-yl)amino)-6^1,6^2,6^3,6^4,6^5,6^6-hexahydro-1^1H-8-oxa-2(4,2)-thiazola-1(5,3)-indola-6(1,3)-pyridazinacycloundecaphane-5,7-dione] gave an IC50 [1, 5] of 4.87 nM, an IC50 ([2]; Homo sapiens) of 3.04 nM and an IC50 ([4]; Homo sapiens, 120 h) of 3 nM.
